In ChEMBL document CHEMBL1201862, “PubChem BioAssay data set” (2004):
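1) Cells in 96-well plates. 2) Compound, 48 h, 5 concentrations. 3) Linear interpolation between surrounding doses. 4) Unreached endpoint = highest concentration. The concentration for 50% growth inhibition is given as GI50.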 Active and inactive are the calls of the source. Cut-off read from the data, not from the text of the source: active = GI50 up to about 1.1 µM and inactive = higher.

How the values were obtained:
Assay in all cases: growth of human tumour cells (NCI), 48 h
786-0 = tested on: 786-0
A549 = tested on: A549
BT-549 = tested on: BT-549
DU-145 = tested on: DU-145
HCT-15 = tested on: HCT-15
HOP-92 = tested on: HOP-92
HT-29 = tested on: HT-29
IGROV-1 = tested on: IGROV-1
KM12 = tested on: KM12
M14 = tested on: M14
MCF7 = tested on: MCF7
NCI-H522 = tested on: NCI-H522
OVCAR-5 = tested on: OVCAR-5
OVCAR-8 = tested on: OVCAR-8
PC-3 = tested on: PC-3
RXF 393 = tested on: RXF 393
SN12C = tested on: SN12C
TK-10 = tested on: TK-10
U-251 = tested on: U-251
UACC-62 = tested on: UACC-62

SMILES	GI50 (786-0)	GI50 (A549)	GI50 (BT-549)	GI50 (DU-145)	GI50 (HCT-15) [µM]	GI50 (HOP-92)	GI50 (HT-29)	GI50 (IGROV-1)	GI50 (KM12)	GI50 (M14)	GI50 (MCF7)	GI50 (NCI-H522)	GI50 (OVCAR-5)	GI50 (OVCAR-8)	GI50 (PC-3)	GI50 (RXF 393)	GI50 (SN12C)	GI50 (TK-10)	GI50 (U-251)	GI50 (UACC-62)
CN(CCC(=O)O)S(=O)(=O)c1ccccc1	> 100 µM (inactive)	> 100 µM (inactive)	> 100 µM (inactive)	> 100 µM (inactive)	> 100	> 100 µM (inactive)	> 100 µM (inactive)	> 100 µM (inactive)	> 100 µM (inactive)	> 100 µM (inactive)	> 100 µM (inactive)	> 100 µM (inactive)	> 100 µM (inactive)	> 100 µM (inactive)	> 100 µM (inactive)	> 100 µM (inactive)	> 100 µM (inactive)	> 100 µM (inactive)	> 100 µM (inactive)	> 100 µM (inactive)
CCN(CCCl)CCCCNc1c2ccccc2nc2ccc(OC)cc12	0.157 µM (active)	0.177 µM (active)	1.38 µM (inactive)	0.336 µM (active)	0.752	0.18 µM (active)	0.13 µM (active)	0.163 µM (active)	0.356 µM (active)	1.12 µM (inactive)	0.0141 µM (active)	0.208 µM (active)	0.659 µM (active)	0.305 µM (active)	0.216 µM (active)	0.238 µM (active)	< 0.023 µM (active)	0.92 µM (active)	0.239 µM (active)	0.171 µM (active)
COC1(C)CP(=O)(OC(C)C)CC(C)=C1Cl (stereo unspecified)	19 µM (inactive)	17.1 µM (inactive)	12.7 µM (inactive)	19.3 µM (inactive)	12.3	11.2 µM (inactive)	12.3 µM (inactive)	11.6 µM (inactive)	15.5 µM (inactive)	13.7 µM (inactive)	4.67 µM (inactive)	9.62 µM (inactive)	18.8 µM (inactive)	16.1 µM (inactive)	25.5 µM (inactive)	21.4 µM (inactive)	15.2 µM (inactive)	15.9 µM (inactive)	10.6 µM (inactive)	10.2 µM (inactive)
CCCCN1CSC(=S)N(Cc2ccccc2)C1	34.4 µM (inactive)	48 µM (inactive)	> 84.9 µM (inactive)	69.3 µM (inactive)	58.2	> 75.9 µM (inactive)	58.6 µM (inactive)	82.2 µM (inactive)	31.1 µM (inactive)	> 82.8 µM (inactive)	31.3 µM (inactive)	23.9 µM (inactive)	> 100 µM (inactive)	66.4 µM (inactive)	63.5 µM (inactive)	48 µM (inactive)	> 71 µM (inactive)	28.4 µM (inactive)	44.6 µM (inactive)	41.2 µM (inactive)
CC(=O)N1N=C(c2ccc3ccccc3c2O)CC1c1ccc(Cl)cc1Cl (stereo unspecified)	18.9 µM (inactive)	25.1 µM (inactive)	> 100 µM (inactive)	> 100 µM (inactive)	56.9	54.6 µM (inactive)	28.7 µM (inactive)	22.4 µM (inactive)	46.2 µM (inactive)	27.2 µM (inactive)	13.2 µM (inactive)	25.7 µM (inactive)	> 100 µM (inactive)	59 µM (inactive)	17.1 µM (inactive)	30.3 µM (inactive)	19.6 µM (inactive)	52.7 µM (inactive)	18.3 µM (inactive)	> 100 µM (inactive)
COc1cc(O)c2c(=O)cc(C3(OC(C)=O)C=CC(OC4OC(CO)C(O)C(O)C4O)C=C3)oc2c1 (stereo unspecified)	> 100 µM (inactive)	> 100 µM (inactive)	> 100 µM (inactive)	> 100 µM (inactive)	> 100	> 100 µM (inactive)	> 100 µM (inactive)	> 100 µM (inactive)	> 100 µM (inactive)	> 100 µM (inactive)	> 100 µM (inactive)	> 100 µM (inactive)	> 100 µM (inactive)	> 100 µM (inactive)	> 100 µM (inactive)	> 100 µM (inactive)	> 100 µM (inactive)	> 100 µM (inactive)	> 100 µM (inactive)	> 100 µM (inactive)
O=C(NCCN1CCCCC1)c1ccc(Br)cc1	> 100 µM (inactive)	> 100 µM (inactive)	> 100 µM (inactive)	> 100 µM (inactive)	> 100	> 100 µM (inactive)	> 100 µM (inactive)	> 100 µM (inactive)	> 100 µM (inactive)	> 100 µM (inactive)	> 100 µM (inactive)	> 100 µM (inactive)	> 100 µM (inactive)	> 100 µM (inactive)	> 100 µM (inactive)	> 100 µM (inactive)	> 100 µM (inactive)	> 100 µM (inactive)	> 100 µM (inactive)	–
NC(=O)NNCc1ccccc1	> 100 µM (inactive)	> 100 µM (inactive)	> 100 µM (inactive)	> 100 µM (inactive)	> 100	51.5 µM (inactive)	> 100 µM (inactive)	> 100 µM (inactive)	> 100 µM (inactive)	> 100 µM (inactive)	> 100 µM (inactive)	> 100 µM (inactive)	> 100 µM (inactive)	> 100 µM (inactive)	> 100 µM (inactive)	> 100 µM (inactive)	> 100 µM (inactive)	> 100 µM (inactive)	> 100 µM (inactive)	> 100 µM (inactive)
OC(c1ccc(C(F)(F)F)cc1)C(F)(F)c1nc2ccccc2o1 (stereo unspecified)	> 100 µM (inactive)	–	> 100 µM (inactive)	> 100 µM (inactive)	> 100	> 100 µM (inactive)	> 100 µM (inactive)	> 100 µM (inactive)	> 100 µM (inactive)	> 100 µM (inactive)	> 100 µM (inactive)	–	–	> 100 µM (inactive)	> 100 µM (inactive)	> 100 µM (inactive)	–	> 100 µM (inactive)	> 100 µM (inactive)	> 100 µM (inactive)
COC1=C(C)C(=O)C2=C(C1=O)C1C3CC4=C(C(=O)C(OC)=C(C)C4=O)C(CNC(=O)C(C)=O)N3C(C#N)C(C2)N1C (stereo unspecified)	0.00383 µM (active)	0.182 µM (active)	< 0.001 µM (active)	0.00545 µM (active)	0.00603	0.00442 µM (active)	0.00388 µM (active)	0.00424 µM (active)	0.00789 µM (active)	0.00417 µM (active)	0.01 µM (active)	< 0.001 µM (active)	0.0172 µM (active)	0.00661 µM (active)	0.00352 µM (active)	0.00496 µM (active)	–	0.0328 µM (active)	0.00811 µM (active)	0.00353 µM (active)
COC(=O)Cc1c([C@@H]2Nc3ccccc3[C@H]2CC(=O)OC)[nH]c2ccccc12	58.2 µM (inactive)	31.7 µM (inactive)	18.5 µM (inactive)	59.4 µM (inactive)	5.02	45.8 µM (inactive)	48.5 µM (inactive)	9.79 µM (inactive)	–	–	25.4 µM (inactive)	–	27.8 µM (inactive)	33.7 µM (inactive)	11.1 µM (inactive)	25.7 µM (inactive)	30.3 µM (inactive)	44.2 µM (inactive)	20.4 µM (inactive)	13.9 µM (inactive)
Oc1ccc(Cl)cc1C1=NC(NCNC2=NC(c3ccccc3)CC(c3cc(Cl)ccc3O)=N2)=NC(c2ccccc2)C1 (stereo unspecified)	> 100 µM (inactive)	> 100 µM (inactive)	> 100 µM (inactive)	44.2 µM (inactive)	43.4	> 100 µM (inactive)	70.8 µM (inactive)	61.2 µM (inactive)	> 100 µM (inactive)	> 100 µM (inactive)	20.9 µM (inactive)	–	44.1 µM (inactive)	> 100 µM (inactive)	> 100 µM (inactive)	37.7 µM (inactive)	–	> 100 µM (inactive)	> 100 µM (inactive)	> 100 µM (inactive)
COc1ccc(-c2c(C(=O)Nc3ccccc3)c(-c3ccccc3)n(C3OC(CO)C(O)C(O)C3O)c(=S)c2C#N)cc1 (stereo unspecified)	> 100 µM (inactive)	> 100 µM (inactive)	0.719 µM (active)	> 100 µM (inactive)	> 100	> 100 µM (inactive)	> 100 µM (inactive)	> 100 µM (inactive)	> 100 µM (inactive)	> 100 µM (inactive)	> 100 µM (inactive)	> 100 µM (inactive)	> 100 µM (inactive)	> 100 µM (inactive)	> 100 µM (inactive)	> 100 µM (inactive)	> 100 µM (inactive)	–	> 100 µM (inactive)	> 100 µM (inactive)
NC1=Nc2ccccc2Sc2nc3ccccc3n21	2.23 µM (inactive)	26.7 µM (inactive)	34.3 µM (inactive)	39.6 µM (inactive)	35.5	22.7 µM (inactive)	9.12 µM (inactive)	34.4 µM (inactive)	27.2 µM (inactive)	5.46 µM (inactive)	5.53 µM (inactive)	13.9 µM (inactive)	8.15 µM (inactive)	–	9.62 µM (inactive)	19.4 µM (inactive)	48.2 µM (inactive)	> 100 µM (inactive)	5.9 µM (inactive)	23.9 µM (inactive)
CCOC(=O)NN(C(=O)OCC)C(=C(C1=CCCCC1)N1CCOCC1)N(NC(=O)OCC)C(=O)OCC	> 100 µM (inactive)	> 100 µM (inactive)	> 100 µM (inactive)	> 100 µM (inactive)	> 100	> 100 µM (inactive)	> 100 µM (inactive)	> 100 µM (inactive)	> 100 µM (inactive)	> 100 µM (inactive)	> 100 µM (inactive)	–	> 100 µM (inactive)	> 100 µM (inactive)	> 100 µM (inactive)	> 100 µM (inactive)	> 100 µM (inactive)	> 100 µM (inactive)	> 100 µM (inactive)	> 100 µM (inactive)
